Measured values taken from patent publication US12583868B2, “JAK inhibitors and methods for synthesizing and using thereof” (GALDERMA HOLDING SA, priority 2020, dated 2026).

How the values were obtained:
CYP3A4 = molecular target: T1, CYP3A4 (Homo sapiens, UniProt P08684); assay: CYP3A inhibition in human liver microsomes; type: in vitro ADME; settings: testosterone, CRL data, read-out: IC50 CYP3A4 testo.
T1 construct: Human pooled liver microsomes of mixed gender (mainly Caucasian); from tissue; host or cells: pooled human liver microsomes
T1 sequence (P08684 2-503): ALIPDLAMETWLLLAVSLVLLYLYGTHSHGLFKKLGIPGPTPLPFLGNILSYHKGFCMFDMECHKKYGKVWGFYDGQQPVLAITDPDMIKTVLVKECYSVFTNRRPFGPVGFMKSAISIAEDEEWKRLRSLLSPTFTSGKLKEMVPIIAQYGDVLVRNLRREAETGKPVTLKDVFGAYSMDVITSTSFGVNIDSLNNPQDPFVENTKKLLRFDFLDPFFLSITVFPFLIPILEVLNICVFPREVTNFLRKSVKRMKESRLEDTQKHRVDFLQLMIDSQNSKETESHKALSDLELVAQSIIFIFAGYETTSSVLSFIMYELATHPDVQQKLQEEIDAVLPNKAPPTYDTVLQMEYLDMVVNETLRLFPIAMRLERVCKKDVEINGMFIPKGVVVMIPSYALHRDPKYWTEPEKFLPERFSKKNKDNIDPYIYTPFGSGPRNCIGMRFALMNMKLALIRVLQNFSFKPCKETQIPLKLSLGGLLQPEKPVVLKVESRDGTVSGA

JAK3 = molecular target: T2, JAK3 (Homo sapiens, UniProt P52333); assay: In vitro enzyme assay (Cisbio kinase assay), JAK3; type: biochemical; settings: ATP 300 μM; read-out: Enzymatic assay: JAK3
T2 construct: purchased Life Technologies PV3855
T2 sequence (P52333 1-1124): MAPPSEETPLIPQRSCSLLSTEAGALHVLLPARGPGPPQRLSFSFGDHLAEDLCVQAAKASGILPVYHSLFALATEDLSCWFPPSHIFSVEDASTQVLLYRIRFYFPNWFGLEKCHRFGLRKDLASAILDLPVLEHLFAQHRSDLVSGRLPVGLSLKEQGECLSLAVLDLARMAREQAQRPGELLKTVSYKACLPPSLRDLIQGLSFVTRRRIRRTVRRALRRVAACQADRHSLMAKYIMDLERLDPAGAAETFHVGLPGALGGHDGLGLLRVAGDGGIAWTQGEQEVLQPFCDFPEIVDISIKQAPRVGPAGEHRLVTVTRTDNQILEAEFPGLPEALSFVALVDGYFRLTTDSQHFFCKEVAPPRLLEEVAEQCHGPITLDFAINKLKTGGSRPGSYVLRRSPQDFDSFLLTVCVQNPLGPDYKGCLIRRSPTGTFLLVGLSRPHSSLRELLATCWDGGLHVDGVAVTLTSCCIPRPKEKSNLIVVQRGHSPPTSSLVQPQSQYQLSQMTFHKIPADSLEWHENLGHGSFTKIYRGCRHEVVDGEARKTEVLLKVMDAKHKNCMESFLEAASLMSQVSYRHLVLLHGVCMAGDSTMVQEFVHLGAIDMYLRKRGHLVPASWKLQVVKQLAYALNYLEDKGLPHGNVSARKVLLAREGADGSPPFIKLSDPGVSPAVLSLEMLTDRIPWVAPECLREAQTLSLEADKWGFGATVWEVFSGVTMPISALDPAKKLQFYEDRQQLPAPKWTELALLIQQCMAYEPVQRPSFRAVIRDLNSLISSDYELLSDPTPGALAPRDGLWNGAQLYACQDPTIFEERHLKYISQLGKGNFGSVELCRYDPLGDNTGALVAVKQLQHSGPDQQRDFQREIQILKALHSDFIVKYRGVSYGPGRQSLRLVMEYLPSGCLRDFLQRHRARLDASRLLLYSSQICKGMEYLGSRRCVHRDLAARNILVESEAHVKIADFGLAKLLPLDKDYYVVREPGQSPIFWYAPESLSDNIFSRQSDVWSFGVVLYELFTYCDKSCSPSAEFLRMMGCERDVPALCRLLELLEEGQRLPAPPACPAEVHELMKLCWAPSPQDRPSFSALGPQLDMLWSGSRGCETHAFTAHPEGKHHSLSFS

Recombinant JAK1 = molecular target: T3, Recombinant JAK1 (Homo sapiens, UniProt P23458); assay: In vitro enzyme assay (Cisbio kinase assay), JAK1; type: biochemical; settings: ATP 300 μM; read-out: Enzymatic assay: IC50 JAK1
T3 construct: purchased Life Technologies PV4775
T3 sequence (P23458 whole entry): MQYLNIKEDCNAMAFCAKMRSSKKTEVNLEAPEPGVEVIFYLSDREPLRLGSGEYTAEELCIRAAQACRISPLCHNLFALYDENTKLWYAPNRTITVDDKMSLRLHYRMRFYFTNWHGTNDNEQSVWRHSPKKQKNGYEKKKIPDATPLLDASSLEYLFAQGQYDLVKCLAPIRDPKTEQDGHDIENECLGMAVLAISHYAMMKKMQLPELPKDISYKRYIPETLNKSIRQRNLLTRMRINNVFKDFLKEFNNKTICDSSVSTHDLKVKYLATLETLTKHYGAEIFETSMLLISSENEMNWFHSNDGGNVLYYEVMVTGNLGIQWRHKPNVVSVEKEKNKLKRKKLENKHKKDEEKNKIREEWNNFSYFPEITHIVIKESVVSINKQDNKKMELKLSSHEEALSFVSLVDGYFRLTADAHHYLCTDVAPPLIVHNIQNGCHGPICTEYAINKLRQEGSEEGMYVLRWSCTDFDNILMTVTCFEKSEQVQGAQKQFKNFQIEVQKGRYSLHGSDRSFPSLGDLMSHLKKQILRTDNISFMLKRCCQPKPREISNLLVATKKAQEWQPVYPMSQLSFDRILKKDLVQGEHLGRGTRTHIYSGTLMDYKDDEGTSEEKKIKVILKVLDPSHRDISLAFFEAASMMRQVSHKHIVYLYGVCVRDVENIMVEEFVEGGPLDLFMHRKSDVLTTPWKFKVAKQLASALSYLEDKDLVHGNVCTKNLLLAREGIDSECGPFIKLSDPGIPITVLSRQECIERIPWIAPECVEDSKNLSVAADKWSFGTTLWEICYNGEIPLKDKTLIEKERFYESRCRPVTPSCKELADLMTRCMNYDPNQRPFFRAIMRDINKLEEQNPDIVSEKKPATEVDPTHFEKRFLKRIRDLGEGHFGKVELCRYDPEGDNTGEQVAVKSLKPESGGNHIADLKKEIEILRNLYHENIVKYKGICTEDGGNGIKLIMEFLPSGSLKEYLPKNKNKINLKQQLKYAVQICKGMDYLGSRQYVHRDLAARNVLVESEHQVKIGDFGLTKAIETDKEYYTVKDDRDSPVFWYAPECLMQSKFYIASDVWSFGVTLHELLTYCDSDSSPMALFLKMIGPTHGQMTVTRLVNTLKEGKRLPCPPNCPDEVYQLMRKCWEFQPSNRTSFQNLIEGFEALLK

CYP2D6 = molecular target: T4, CYP2D6 (Homo sapiens, UniProt P10635); assay: CYP2D6 inhibition in human liver microsomes; type: in vitro ADME; settings: dextromethorphan, CRL data
T4 construct: Human pooled liver microsomes of mixed gender (mainly Caucasian); from tissue; host or cells: pooled human liver microsomes
T4 sequence (P10635 whole entry): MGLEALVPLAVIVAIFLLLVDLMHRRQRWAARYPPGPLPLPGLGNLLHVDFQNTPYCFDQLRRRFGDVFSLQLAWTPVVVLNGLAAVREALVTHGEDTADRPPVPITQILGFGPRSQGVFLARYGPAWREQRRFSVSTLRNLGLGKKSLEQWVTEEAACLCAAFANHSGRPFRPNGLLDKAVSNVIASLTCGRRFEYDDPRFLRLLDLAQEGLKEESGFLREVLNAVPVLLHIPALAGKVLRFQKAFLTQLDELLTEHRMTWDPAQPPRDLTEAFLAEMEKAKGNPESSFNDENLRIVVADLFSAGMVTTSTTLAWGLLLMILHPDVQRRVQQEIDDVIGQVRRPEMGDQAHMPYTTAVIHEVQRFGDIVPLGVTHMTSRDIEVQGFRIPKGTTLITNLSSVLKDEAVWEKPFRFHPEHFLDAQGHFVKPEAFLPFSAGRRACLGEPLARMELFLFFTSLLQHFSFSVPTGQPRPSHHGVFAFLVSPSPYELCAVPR
Experimental: After 5 min at 37° C. incubations were started with NADPH and prolonged for 10 min. The test compound was tested up to 30 μM keeping the final concentration of organic solvent was below 0.5%. The final concentration of microsomes was 0.1 mg/ml to ensure linearity during the time of the incubation. The reaction was quenched by adding 3 volume of acetonitrile. After centrifugation the supernatant was analyzed by HPLC/MS/MS for the formation of des-methyldextromethorphane selectively produced by CYP2D6 and 1′hydroxymidazolam or 6p-hydroxytestosterone, selectively produced by CYP3A. IC50 was calculated with Graphpad Prism v.7 comparing the amount of metabolite produced in presence of the test compound with that produced in absence of test item.

44 targets = type: binding
Experimental: An in vitro pharmacology assay was conducted to assess the capability of the compounds to interact with different pharmacological targets when tested at 10 μM in different binding and enzyme/uptake assays. The included targets are indicative of potential effects in major organs and drug-drug interactions.
Compound binding was calculated as a % inhibition of the binding of a radioactively labelled ligand specific for each target. […] […].

[1] = Protein binding analysis (RED), human plasma; type: in vitro ADME; settings: 5 μM
Experimental: The protein binding was assessed in plasma of Human, male balb-c mice, male Wistar Han rat, male Göttingen minipig by rapid equilibrium dialysis (RED) devices. After the plasma and buffer phosphate 50 mM pH7.4 were equilibrated at 37° C., the compound was added to plasma to reach a final concentration of 5 μM. An aliquot of plasma was withdrawn immediately. Equilibration under mild agitation was continued for 4 h. The plasma and buffer were sampled and samples were quenched with 4 volumes of acetonitrile and centrifuged. Supernatant was quantified in HPLC/MS/MS to calculate the recovery and the percentage of compound dissolved in the buffer (unbound) and bound to plasma proteins.

hERG channel = molecular target: T5, hERG channel (Homo sapiens, UniProt Q12809); assay: In vitro hERG channel whole cell patch clamp; type: cell-based; settings: CHO-K1 cells expressing hERG
T5 construct: expressed in transfected cells; host or cells: CHO-K1
T5 sequence (Q12809 whole entry): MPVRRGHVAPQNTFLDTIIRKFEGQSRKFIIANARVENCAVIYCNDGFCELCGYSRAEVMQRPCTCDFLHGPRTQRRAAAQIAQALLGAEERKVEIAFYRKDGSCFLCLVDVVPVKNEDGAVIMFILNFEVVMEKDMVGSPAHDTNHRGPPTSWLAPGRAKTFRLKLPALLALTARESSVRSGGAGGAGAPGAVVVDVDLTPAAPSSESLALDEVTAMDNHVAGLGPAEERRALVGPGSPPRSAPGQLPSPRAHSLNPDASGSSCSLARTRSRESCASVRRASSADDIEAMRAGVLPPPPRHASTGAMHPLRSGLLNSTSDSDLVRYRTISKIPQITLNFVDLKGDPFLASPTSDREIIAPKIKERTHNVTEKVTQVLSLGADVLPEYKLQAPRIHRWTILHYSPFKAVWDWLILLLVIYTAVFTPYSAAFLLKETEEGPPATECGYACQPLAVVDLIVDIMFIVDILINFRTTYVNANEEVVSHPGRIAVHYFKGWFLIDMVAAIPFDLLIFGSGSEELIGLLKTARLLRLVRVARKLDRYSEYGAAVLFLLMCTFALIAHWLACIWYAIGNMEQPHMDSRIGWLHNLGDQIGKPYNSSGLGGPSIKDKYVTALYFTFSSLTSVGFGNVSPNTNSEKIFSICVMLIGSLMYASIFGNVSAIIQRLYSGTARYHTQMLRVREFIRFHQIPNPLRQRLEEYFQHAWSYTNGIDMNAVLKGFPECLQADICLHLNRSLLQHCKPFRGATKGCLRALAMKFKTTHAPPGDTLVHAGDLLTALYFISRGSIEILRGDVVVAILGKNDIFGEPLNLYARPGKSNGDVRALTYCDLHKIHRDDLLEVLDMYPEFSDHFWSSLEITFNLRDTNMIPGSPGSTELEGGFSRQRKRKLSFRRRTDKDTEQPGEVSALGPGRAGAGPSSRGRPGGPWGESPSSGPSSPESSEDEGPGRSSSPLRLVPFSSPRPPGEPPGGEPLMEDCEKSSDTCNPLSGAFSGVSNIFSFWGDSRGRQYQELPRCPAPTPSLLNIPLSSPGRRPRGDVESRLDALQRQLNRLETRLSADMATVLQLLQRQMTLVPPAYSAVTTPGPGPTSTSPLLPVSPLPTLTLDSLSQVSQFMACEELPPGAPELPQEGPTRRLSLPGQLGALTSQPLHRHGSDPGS
Experimental: Blockade of the delayed rectifier potassium current (IKr) encoded by hERG gene (human ether a go go-related gene) can lead to QT interval prolongation and is therefore investigated as part of the cardiac risk assessment. This channel is critical for the repolarisation of the cardiac membrane. The effect of the compounds on IKr was assessed by whole cell patch clamp in stably transfected CHO-K1 cells expressing hERG (Human Ether-a-go-go Related Gene) channel following superfusion at different concentrations up to 30 μM.

iv PK mice = settings: female, mouse, in vivo
From the text: Other studies including, but not limited to, CaCO2 permeability, metabolite profiling in human microsomes (Syneos 7007703.SA.186) and in human hepatocytes (Syneos 7007703.SA.185), metabolite M3b structural elucidation (Syneos 7007703.SA.186), mouse iv female (ODS CFH-1798), mouse iv+ABT females (ODS CFH 1799), mouse topical d1,d10 (ODS Study Number: NBK39-32, 12 Sep. 2019, ELN Bioanalysis study: NBK156-79), rat iv (Pharmaron PH-DMPK-GAL-20-002), dog topical d1, d10 (CRL FY19.085) and minipig topical PK dl, d7 (Pharmaron 92404-19-914) are also conducted using the standard protocols known in the art.

O=S(=O)(N[C@H]1C[C@@H](N2CCOc3cnc4[nH]ccc4c32)C1)C1CN(C2CC2)C1 [Compound E, 1-Cyclopropyl-N-((cis)-3-(2,3-dihydropyrrolo[3′,2′:5,6]pyrido[3,4-b][1,4]oxazin-1(7H)-yl)cyclobutyl)azetidine-3-sulfonamide]
IC50 (CYP3A4): 5 µM | IC50 (JAK3): > 10 µM | IC50 (Recombinant JAK1): 0.009 µM | IC50 (CYP2D6): 20 µM | Safety panel (Cerep): 44 targets % inh @10 microM Nb of targets > 50% inh (44 targets): 2/44 | Safety panel (Cerep): targets > 50% inh (44 targets; 10 μM): (H2 (antago)-alpha2A (antago)) | hFU [1]: 23% | IC50 (hERG channel): 15 µM | Vd (iv PK mice): 2.6 L/kg | clearance (iv PK mice; read-out: iv PK mice: Cl): 140 mL/min/kg | half-life (iv PK mice; read-out: iv PK mice: t½): 26.4 min
